A word on the melting point: it is the temperature, or range, at which the solid turns liquid.

The compound `C(=C\c1cc(/C=C/c2ccc3[nH]ccc3c2)[nH]n1)/c1ccc(OCc2ccccn2)cc1` [Example 4, 3-[(1E)-2-(1H-indol-5-yl)ethenyl]-5-[(1E)-2-[4-(2-pyridylmethoxy)phenyl]ethenyl]-1H-pyrazole] gave a melting point of 95 to 102 °C. `COc1cc(/C=C/c2cc(/C=C/c3ccc4[nH]ccc4c3)[nH]n2)ccc1OCc1ccccn1` [Example 5, 3-[(1E)-2-(1H-indol-5-yl)ethenyl]-5-[(1E)-2-[3-methoxy-4-(2-pyridylmethoxy)phenyl]ethenyl]-1H-pyrazole] displayed a melting point of 96 to 101 °C. As for `COc1ccc(/C=C/c2cc(/C=C/c3ccc4[nH]ccc4c3)[nH]n2)cc1OCc1ccccn1` [Example 6, 3-[(1E)-2-(1H-indol-5-yl)ethenyl]-5-[(1E)-2-[4-methoxy-3-(2-pyridylmethoxy)phenyl]ethenyl]-1H-pyrazole], the melting point was in the range of 109 to 118 °C. Turning to `C(=C\c1cc(/C=C/c2ccc3[nH]ccc3c2)[nH]n1)/c1cccc(OCc2ccccn2)c1` [Example 7, 3-[(1E)-2-(1H-indol-5-yl)ethenyl]-5-[(1E)-2-[3-(2-pyridylmethoxy)phenyl]ethenyl]-1H-pyrazole], the melting point was 183 to 186 °C. Next, `C(=C\c1cc(/C=C/c2c[nH]c3ccccc23)[nH]n1)/c1ccc(OCc2ccccn2)cc1` [Example 10, 3-[(1E)-2-(1H-indol-3-yl)ethenyl]-5-[(1E)-2-[4-(2-pyridylmethoxy)phenyl]ethenyl]-1H-pyrazole]: 196 to 199 °C; `COc1cc(/C=C/c2cc(/C=C/c3c[nH]c4ccccc34)[nH]n2)ccc1OCc1ccccn1` [Example 11, 3-[(1E)-2-(1H-indol-3-yl)ethenyl]-5-[(1E)-2-[3-methoxy-4-(2-pyridylmethoxy)phenyl]ethenyl]-1H-pyrazole]: 120 to 130 °C. In turn, `COc1ccc(/C=C/c2cc(/C=C/c3c[nH]c4ccccc34)[nH]n2)cc1OCc1ccccn1` [Example 12, 3-[(1E)-2-(1H-indol-3-yl)ethenyl]-5-[(1E)-2-[4-methoxy-3-(2-pyridylmethoxy)phenyl]ethenyl]-1H-pyrazole] yielded a melting point of 232 to 243 °C. In turn, `C(=C\c1cc(/C=C/c2c[nH]c3ccccc23)[nH]n1)/c1cccc(OCc2ccccn2)c1` [Example 13, 3-[(1E)-2-(1H-indol-3-yl)ethenyl]-5-[(1E)-2-[3-(2-pyridylmethoxy)phenyl]ethenyl]-1H-pyrazole] had a melting point of 198 to 201 °C. With `C(=C\c1cc(/C=C/c2ccc3cc[nH]c3c2)[nH]n1)/c1ccc(OCc2ccccn2)cc1` [Example 16, 3-[(1E)-2-(1H-indol-6-yl)ethenyl]-5-[(1E)-2-[4-(2-pyridylmethoxy)phenyl]ethenyl]-1H-pyrazole], the melting point lay in the range of 211 to 214 °C. On to `COc1cc(/C=C/c2cc(/C=C/c3ccc4cc[nH]c4c3)[nH]n2)ccc1OCc1ccccn1` [Example 17, 3-[(1E)-2-(1H-indol-6-yl)ethenyl]-5-[(1E)-2-[3-methoxy-4-(2-pyridylmethoxy)phenyl]ethenyl]-1H-pyrazole], for which the melting point fell in the range of 236 to 243 °C. Next, `COc1ccc(/C=C/c2cc(/C=C/c3ccc4cc[nH]c4c3)[nH]n2)cc1OCc1ccccn1` [Example 18, 3-[(1E)-2-(1H-indol-6-yl)ethenyl]-5-[(1E)-2-[4-methoxy-3-(2-pyridylmethoxy)phenyl]ethenyl]-1H-pyrazole]: 110 to 117 °C; `C(=C\c1cc(/C=C/c2ccc3cc[nH]c3c2)[nH]n1)/c1cccc(OCc2ccccn2)c1` [Example 19, 3-[(1E)-2-(1H-indol-6-yl)ethenyl]-5-[(1E)-2-[3-(2-pyridylmethoxy)phenyl]ethenyl]-1H-pyrazole]: 193 to 195 °C; `COc1c(/C=C/c2cc(/C=C/c3ccc4cc[nH]c4c3)[nH]n2)cccc1OCc1ccccn1` [Example 22, 3-[(1E)-2-(1H-indol-6-yl)ethenyl]-5-[(1E)-2-[2-methoxy-3-(2-pyridylmethoxy)phenyl]ethenyl]-1H -pyrazole]: 109 to 114 °C. Next, `COc1cc(/C=C/c2cc(/C=C/c3ccc4cc[nH]c4c3)[nH]n2)cc(OCc2ccccn2)c1` [Example 25, 3-[(1E)-2-(1H-indol-6-yl)ethenyl]-5-[(1E)-2-[3-methoxy-5-(2-pyridylmethoxy)phenyl]ethenyl]-1H-pyrazole]: 88 to 93 °C; `COc1cc(OCCN2CCCCC2)ccc1/C=C/c1cc(/C=C/c2ccc3cc[nH]c3c2)[nH]n1` [Example 26, 3-[(1E)-2-(1H-indol-6-yl)ethenyl]-5-[(1E)-2-[2-methoxy-4-(2-piperidinoethoxy)phenyl]ethenyl]-1H-pyrazole]: 150 to 155 °C. Next, `COc1cc(OCCN2CCN(C)CC2)ccc1/C=C/c1cc(/C=C/c2ccc3cc[nH]c3c2)[nH]n1` [Example 28, 3-[(1E)-2-(1H-indol-6-yl)ethenyl]-5-[(1E)-2-[2-methoxy-4-[2-(4-methylpiperazino)ethoxy]phenyl]ethenyl]-1H-pyrazole]: 134 to 142 °C; `COc1cc(O[C@@H]2O[C@H](CO)[C@@H](O)[C@H](O)[C@H]2O)ccc1/C=C/c1cc(/C=C/c2ccc3cc[nH]c3c2)[nH]n1` [Example 29, 3-[(1E)-2-(1H-indol-6-yl)ethenyl]-5-[(1E)-2-[4-[(β-D-glucopyranosyl)oxy]-2-methoxyphenyl]ethenyl]-1H-pyrazole]: 194 to 199 °C. Compound `COc1cc(OCc2ccccn2)ccc1/C=C/c1cc(/C=C/c2ccc3[nH]nnc3c2)[nH]n1` [Example 30, 3-[(1E)-2-(1H-benzotriazol-5-yl)ethenyl]-5-[(1E)-2-[2-methoxy-4-(2-pyridylmethoxy)phenyl]ethenyl]-1H-pyrazole] returned a melting point of 113 to 120 °C. The figure for `COc1cc(OCc2ccccn2)ccc1/C=C/c1cc(/C=C/c2ccc3nccnc3c2)[nH]n1` [Example 32, 3-[(1E)-2-[2-methoxy-4-(2-pyridylmethoxy)phenyl]ethenyl]-5-[(1E)-2-(quinoxalin-6-yl)ethenyl]-1H-pyrazole] is 205 to 213 °C; for `COc1cc(OCc2ccccn2)ccc1/C=C/c1cc(/C=C/c2cc3ccccc3o2)[nH]n1` [Example 33, 3-[(1E)-2-(benzofuran-2-yl)ethenyl]-5-[(1E)-2-[2-methoxy-4-(2-pyridylmethoxy)phenyl]ethenyl]-1H-pyrazole] it is 199.4 to 200.9 °C. Compound `COc1cc(OCc2ccccn2)ccc1/C=C/c1cc(/C=C/c2cc3ccccc3s2)[nH]n1` [Example 34, 3-[(1E)-2-(benzothiophen-2-yl)ethenyl]-5-[(1E)-2-[2-methoxy-4-(2-pyridylmethoxy)phenyl]ethenyl]-1H-pyrazole] returned a melting point of 231.1 to 232.1 °C.

For the compound `COc1cc(OCc2ccccn2)ccc1/C=C/c1cc(/C=C/c2c[nH]c3ccccc23)[nH]n1` [Example 38, 3-[(1E)-2-(1H-indol-3-yl)ethenyl]-5-[(1E)-2-[2-methoxy-4-(2-pyridylmethoxy)phenyl]ethenyl]-1H-pyrazole], the melting point fell in the range of 112 to 116 °C.

As for `COc1cc(OCc2ccccn2)ccc1/C=C/c1cc(/C=C/c2cccc3[nH]ccc23)[nH]n1` [Example 39, 3-[(1E)-2-(1H-indol-4-yl)ethenyl]-5-[(1E)-2-[2-methoxy-4-(2-pyridylmethoxy)phenyl]ethenyl]-1H-pyrazole], the melting point lay within 108 to 113 °C. For the compound `COc1cc(OCc2ccccn2)ccc1/C=C/c1cc(/C=C/c2ccc3[nH]ccc3c2)[nH]n1` [Example 40, 3-[(1E)-2-(1H-indol-5-yl)ethenyl]-5-[(1E)-2-[2-methoxy-4-(2-pyridylmethoxy)phenyl]ethenyl]-1H-pyrazole], the melting point lay in the range of 98 to 104 °C.

`COc1cc(OCc2ccccn2)ccc1/C=C/c1cc(/C=C/c2cccc3cc[nH]c23)[nH]n1` [Example 41, 3-[(1E)-2-(1H-indol-7-yl)ethenyl]-5-[(1E)-2-[2-methoxy-4-(2-pyridylmethoxy)phenyl]ethenyl]-1H-pyrazole] had a melting point of 99 to 110 °C. Take `COc1cc(OCc2cccnc2)ccc1/C=C/c1cc(/C=C/c2c[nH]c3ccccc23)[nH]n1` [Example 42, 3-[(1E)-2-(1H-indol-3-yl)ethenyl]-5-[(1E)-2-[2-methoxy-4-(3-pyridylmethoxy)phenyl]ethenyl]-1H-pyrazole]: the melting point was in the range of 129 to 137 °C. The figure for `COc1cc(OCc2ccncc2)ccc1/C=C/c1cc(/C=C/c2c[nH]c3ccccc23)[nH]n1` [Example 43, 3-[(1E)-2-(1H-indol-3-yl)ethenyl]-5-[(1E)-2-[2-methoxy-4-(4-pyridylmethoxy)phenyl]ethenyl]-1H-pyrazole] is 128 to 139 °C; for `COc1cc(OCc2cccnc2)ccc1/C=C/c1cc(/C=C/c2ccc3[nH]ccc3c2)[nH]n1` [Example 44, 3-[(1E)-2-(1H-indol-5-yl)ethenyl]-5-[(1E)-2-[2-methoxy-4-(3-pyridylmethoxy)phenyl]ethenyl]-1H-pyrazole] it is 127 to 135 °C; for `COc1cc(OCc2ccncc2)ccc1/C=C/c1cc(/C=C/c2ccc3[nH]ccc3c2)[nH]n1` [Example 45, 3-[(1E)-2-(1H-indol-5-yl)ethenyl]-5-[(1E)-2-[2-methoxy-4-(4-pyridylmethoxy)phenyl]ethenyl]-1H-pyrazole] it is 133 to 141 °C. Next, `COc1cc(OCc2cccnc2)ccc1/C=C/c1cc(/C=C/c2ccc3cc[nH]c3c2)[nH]n1` [Example 46, 3-[(1E)-2-(1H-indol-6-yl)ethenyl]-5-[(1E)-2-[2-methoxy-4-(3-pyridylmethoxy)phenyl]ethenyl]-1H-pyrazole]: 90 to 95 °C; `COc1cc(OCc2ccncc2)ccc1/C=C/c1cc(/C=C/c2ccc3cc[nH]c3c2)[nH]n1` [Example 47, 3-[(1E)-2-(1H-indol-6-yl)ethenyl]-5-[(1E)-2-[2-methoxy-4-(4-pyridylmethoxy)phenyl]ethenyl]-1H-pyrazole]: 103 to 118 °C. The figure for `COc1cc(OCc2cccnc2)ccc1/C=C/c1cc(/C=C/c2cccc3[nH]ccc23)[nH]n1` [Example 48, 3-[(1E)-2-(1H-indol-4-yl)ethenyl]-5-[(1E)-2-[2-methoxy-4-(3-pyridylmethoxy)phenyl]ethenyl]-1H-pyrazole] is 109 to 114 °C.

Source of the values: US9399635B2, “Pyrazole derivative” (GREEN TECH CO., LTD., priority 2011, dated 2016).
